Results from patent US10603369B2, “Combination vaccines with lower doses of antigen and/or adjuvant” (GlaxoSmithKline Biologicals SA, priority 2011, dated 2020).
Converted amounts (≈) assume the structure as drawn.

What was measured:
[1] = Adsorption of TLR agonist to aluminium hydroxide adjuvant; assay type: physicochemical
physchem = conditions: water

adsorption to aluminium hydroxide [1]: adsorbs well
solubility (physchem): ~4000 µg/mL (≈ 6.78 mM)
SMILES: Cc1ccc2c(c1)nc(N)c1ncc(CCc3ccc(OCCOCCOCCC(F)(F)P(=O)(O)O)cc3C)cc12 [compound T]
